Laboratory results from PMC12586182 (Frontiers in Oncology, 2025).

What was measured:
[1] = system: PA-1; test: Cell viability assay (ATPlite); assay type: cell-based; settings: Homo sapiens; PA-1 cell line, 72 hours incubation
In short: (§1)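 Cells grew 24 h, then received 9-point √10-fold compound series in duplicate (0.4% DMSO final) for 72 h. ATP content was read by ATPlite luminescence and normalized to vehicle controls as % viability. IC50 came from a four-parameter logistic fit; curves with F-value above 1.5 were invalidated, with IC50 then set at the top concentration.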

[2] = system: HCT 116; test: Cell viability assay (ATPlite); assay type: cell-based; settings: Homo sapiens; HCT 116 cell line, 72 hours incubation
In short: as §1

[3] = system: LS411N; test: Cell viability assay (ATPlite); assay type: cell-based; settings: Homo sapiens, LS-411N; LS411N cell line, 72 hours incubation
In short: as §1

[4] = system: DLD-1; test: Cell viability assay (ATPlite); assay type: cell-based; settings: Homo sapiens; DLD-1 cell line, 72 hours incubation
In short: as §1

[5] = system: NCI-H2452; test: Cell viability assay (ATPlite); assay type: cell-based; settings: Homo sapiens; NCI-H2452 cell line, 72 hours incubation
In short: as §1

[6] = system: H9; test: Cell viability assay (ATPlite); assay type: cell-based; settings: Homo sapiens; H9 cell line, 72 hours incubation
In short: as §1

[7] = system: HCC1954; test: Cell viability assay (ATPlite); assay type: cell-based; settings: Homo sapiens; HCC1954 cell line, 72 hours incubation
In short: as §1

[8] = system: Daoy; test: Cell viability assay (ATPlite); assay type: cell-based; settings: Homo sapiens; Daoy cell line, 72 hours incubation
In short: as §1

[9] = system: MCF-7; test: Cell viability assay (ATPlite); assay type: cell-based; settings: Homo sapiens, MCF7; MCF-7 cell line, 72 hours incubation
In short: as §1

[10] = system: Hs 852.T; test: Cell viability assay (ATPlite); assay type: cell-based; settings: Homo sapiens; Hs 852.T cell line, 72 hours incubation
In short: as §1

[11] = system: SW684; test: Cell viability assay (ATPlite); assay type: cell-based; settings: Homo sapiens; SW684 cell line, 72 hours incubation
In short: as §1

[12] = system: A-427; test: Cell viability assay (ATPlite); assay type: cell-based; settings: Homo sapiens; A-427 cell line, 72 hours incubation
In short: as §1

[13] = system: HCT 15; test: Cell viability assay (ATPlite); assay type: cell-based; settings: Homo sapiens; HCT 15 cell line, 72 hours incubation
In short: as §1

[14] = system: Rh30; test: Cell viability assay (ATPlite); assay type: cell-based; settings: Homo sapiens; Rh30 cell line, 72 hours incubation
In short: as §1

[15] = system: A-204; test: Cell viability assay (ATPlite); assay type: cell-based; settings: Homo sapiens, A204; A-204 cell line, 72 hours incubation
In short: as §1

[16] = system: RL95-2; test: Cell viability assay (ATPlite); assay type: cell-based; settings: Homo sapiens; RL95-2 cell line, 72 hours incubation
In short: as §1

[17] = system: SK-N-AS; test: Cell viability assay (ATPlite); assay type: cell-based; settings: Homo sapiens; SK-N-AS cell line, 72 hours incubation
In short: as §1

[18] = biological target: biotinylated, inactive MEK1 (Homo sapiens, UniProt Q02750); test: biochemical
[19] = biological target: activated B-RAF (Homo sapiens, UniProt P15056); test: biochemical
[20] = biological target: B-RAF (Homo sapiens, UniProt P15056); test: Kinase enzyme activity assay at 1 mmol/L ATP (Carna)
Method: Inhibition of MLK1 and B-RAF at K M,ATP was determined in a radiometric assay using ^32P-labeled ATP at Eurofins Cerep SA (Celle-Lévescault, France).

[21] = biological target: SIK3 (Homo sapiens, UniProt Q9Y2K2); test: Competition binding assay (Eurofins DiscoverX)
Chain of SIK3 (Q9Y2K2 whole entry): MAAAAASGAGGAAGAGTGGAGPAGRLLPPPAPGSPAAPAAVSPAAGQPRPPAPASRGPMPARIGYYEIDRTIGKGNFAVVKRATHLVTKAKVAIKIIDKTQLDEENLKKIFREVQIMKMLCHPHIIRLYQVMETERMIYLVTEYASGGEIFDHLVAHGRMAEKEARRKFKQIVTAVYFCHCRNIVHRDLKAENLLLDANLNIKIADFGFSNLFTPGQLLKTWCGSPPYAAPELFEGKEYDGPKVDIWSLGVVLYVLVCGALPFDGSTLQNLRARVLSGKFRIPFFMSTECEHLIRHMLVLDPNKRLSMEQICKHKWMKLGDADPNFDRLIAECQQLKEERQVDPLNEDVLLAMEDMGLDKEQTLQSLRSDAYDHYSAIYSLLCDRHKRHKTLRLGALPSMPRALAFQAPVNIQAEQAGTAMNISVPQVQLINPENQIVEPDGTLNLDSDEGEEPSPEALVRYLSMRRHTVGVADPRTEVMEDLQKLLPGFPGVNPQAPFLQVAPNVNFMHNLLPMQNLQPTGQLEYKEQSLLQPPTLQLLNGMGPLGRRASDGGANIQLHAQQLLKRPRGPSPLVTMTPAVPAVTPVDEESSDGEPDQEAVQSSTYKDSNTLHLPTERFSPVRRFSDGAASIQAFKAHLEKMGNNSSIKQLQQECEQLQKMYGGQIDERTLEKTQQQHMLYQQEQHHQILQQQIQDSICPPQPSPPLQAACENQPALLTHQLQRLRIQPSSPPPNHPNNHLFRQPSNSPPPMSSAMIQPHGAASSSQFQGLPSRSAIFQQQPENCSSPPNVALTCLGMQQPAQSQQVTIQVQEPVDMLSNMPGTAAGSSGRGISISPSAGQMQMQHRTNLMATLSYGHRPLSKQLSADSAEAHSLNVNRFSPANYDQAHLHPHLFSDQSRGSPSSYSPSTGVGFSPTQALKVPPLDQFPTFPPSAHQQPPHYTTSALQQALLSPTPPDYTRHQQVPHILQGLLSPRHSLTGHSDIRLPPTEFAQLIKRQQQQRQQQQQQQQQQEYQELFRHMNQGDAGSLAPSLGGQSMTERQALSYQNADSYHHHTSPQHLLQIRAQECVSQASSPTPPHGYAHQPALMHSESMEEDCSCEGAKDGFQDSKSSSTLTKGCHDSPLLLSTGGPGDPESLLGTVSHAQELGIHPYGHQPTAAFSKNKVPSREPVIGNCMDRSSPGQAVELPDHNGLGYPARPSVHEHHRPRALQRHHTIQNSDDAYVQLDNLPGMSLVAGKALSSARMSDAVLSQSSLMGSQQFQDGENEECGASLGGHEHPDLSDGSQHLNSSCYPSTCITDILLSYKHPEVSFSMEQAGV
Method: Inhibition of MLK1 and B-RAF at K M,ATP was determined in a radiometric assay using ^32P-labeled ATP at Eurofins Cerep SA (Celle-Lévescault, France). Interaction with SIK3 was assessed in a competition binding assay at Eurofins DiscoverX LLC (San Diego, CA, USA).

Chain of biotinylated, inactive MEK1 (Q02750 whole entry): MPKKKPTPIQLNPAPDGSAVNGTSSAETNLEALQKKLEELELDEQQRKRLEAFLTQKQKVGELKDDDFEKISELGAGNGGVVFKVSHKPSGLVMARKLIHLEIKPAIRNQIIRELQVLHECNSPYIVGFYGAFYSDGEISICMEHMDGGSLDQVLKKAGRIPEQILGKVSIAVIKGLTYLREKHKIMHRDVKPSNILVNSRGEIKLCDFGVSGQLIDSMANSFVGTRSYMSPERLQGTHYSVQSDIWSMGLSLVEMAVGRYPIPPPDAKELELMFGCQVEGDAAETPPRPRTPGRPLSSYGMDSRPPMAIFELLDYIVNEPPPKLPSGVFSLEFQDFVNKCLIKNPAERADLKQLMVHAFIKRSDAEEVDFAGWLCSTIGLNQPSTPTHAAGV
Chain of B-RAF (P15056 whole entry): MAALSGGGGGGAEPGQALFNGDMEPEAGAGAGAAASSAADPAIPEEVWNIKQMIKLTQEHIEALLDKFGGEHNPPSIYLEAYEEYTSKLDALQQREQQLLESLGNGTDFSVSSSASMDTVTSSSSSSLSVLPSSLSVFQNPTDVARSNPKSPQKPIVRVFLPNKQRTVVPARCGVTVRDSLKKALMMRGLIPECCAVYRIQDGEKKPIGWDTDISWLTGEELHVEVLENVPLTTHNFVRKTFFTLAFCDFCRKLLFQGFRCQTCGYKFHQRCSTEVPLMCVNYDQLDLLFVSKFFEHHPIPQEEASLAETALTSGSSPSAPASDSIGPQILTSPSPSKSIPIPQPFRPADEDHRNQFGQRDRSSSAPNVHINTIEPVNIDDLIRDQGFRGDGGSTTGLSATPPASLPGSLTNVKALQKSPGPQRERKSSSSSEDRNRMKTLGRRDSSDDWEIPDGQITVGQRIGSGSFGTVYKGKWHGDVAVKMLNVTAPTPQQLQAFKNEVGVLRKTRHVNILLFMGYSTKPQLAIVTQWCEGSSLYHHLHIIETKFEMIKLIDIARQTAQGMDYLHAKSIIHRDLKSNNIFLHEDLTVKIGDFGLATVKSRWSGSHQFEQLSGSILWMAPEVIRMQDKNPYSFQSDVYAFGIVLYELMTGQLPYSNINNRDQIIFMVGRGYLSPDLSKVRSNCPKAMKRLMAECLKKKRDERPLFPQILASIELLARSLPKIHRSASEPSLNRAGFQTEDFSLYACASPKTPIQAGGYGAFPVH
Chain of activated B-RAF (P15056 whole entry): as above

## O=C(c1ccc(Oc2ccccc2)cc1Cl)c1c[nH]c2ncnc(N[C@@H]3CC[C@@H](CO)OC3)c12 [nemtabrutinib]
[1]
  IC50: 3.03 µM
[2]
  IC50: 1.65 µM
[3]
  IC50: 0.767 µM
[4]
  IC50: 4.6 µM
[5]
  IC50: 5.46 µM
[6]
  IC50: 1.32 µM
[7]
  IC50: 1.32 µM
[8]
  IC50: 7.17 µM
[9]
  IC50: 12.1 µM
[10]
  IC50: 4.02 µM
[11]
  IC50: 11.9 µM
[12]
  IC50: 1.24 µM
[13]
  IC50: 5.78 µM
[14]
  IC50: 5.52 µM
[15]
  IC50: 6.75 µM
[16]
  IC50: 1.18 µM
[17]
  IC50: 2.81 µM
[18]
  Kd: 0.01 µM
[19]
  Kd: 1.2 µM
[20]
  IC50: 0.335 µM
[21]
  IC50: > 10 µM
[21]; competition binding assay
  Binding to SIK3: No binding
